From patent publication US12495798B2, “Nicotinamide compound and herbicidal composition comprising compound” (KOREA RESEARCH INSTITUTE OF CHEMICAL TECHNOLOGY, priority 2019, dated 2025)

What was measured:
Assay type in all cases: in vivo
black nightshade [1] = assay: Herbicidal activity test against upland field weeds (soil treatment test); design: key to Soil treatment herbicidal activity, black nightshade: 0 (no control); 100 (complete control); settings: scale 0 (no control) to 100 (complete control); for pest or weed control at 50 g/ha: Solanum nigrum, 50 g ai/ha; for Soil treatment herbicidal activity, black nightshade: 75 g ai/ha
Method in brief: (§1)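 Pre-emergence test: seeds or rootstocks were sown in fertilized sandy loam, and the next day the soil surface was sprayed with compound at 50 or 75 g a.i./ha in 50% acetone/0.1% Tween-20. Plants were grown in a greenhouse (30±5 °C, 14/10 h light/dark), then visually scored 0–100 against untreated at 14 d (21 d if needed).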

fall panicum [2] = assay: as above; design: key to Soil treatment herbicidal activity, Fall panicum: 0 (no control); 100 (complete control); settings: scale 0 (no control) to 100 (complete control)
Method in brief: as §1

cocklebur [3] = assay: as above; design: key to Soil treatment herbicidal activity, Cocklebur: 0 (no control); 100 (complete control); settings: scale 0 (no control) to 100 (complete control)
Protocol: Experimental Example 2: Herbicidal Activity Test Against Upland Field Weeds (Soil Treatment Test) Soil treatment was performed as follows: After filling a square plastic pot having a surface area of 350 cm^2 with sandy loam mixed with 1 g per pot (350 cm^2) of horticultural mixed fertilizer (N:P:K=11:10:11), seeds (10˜15 grains) or rootstocks (2 pieces) of 5 kinds of grassy weeds of sorghum, barnyard grass, quack grass, crabgrass, fall panicum, and 5 kinds of broadleaf weeds of black nightshade, indian jointvetch, velvetleaf, cocklebur, bindweed, which had been stored in a low temperature (6° C.), were sown. The day after sowing, test compound solutions were made by diluting with a preparation solution (including 50% acetone, 0.1% Tween-20) so that the final treatment amount of the test compounds was 50 or 75 g a.i./ha. The prepared test compound solution was used for treating soil surface by hand-spraying 14 mL per pot in a fume hood. After the treatment, it was managed under the same greenhouse conditions (average temperature 30±5° C., light/dark=14/10 hours), and after 14 days (after 21 days if necessary), the external symptoms and efficacy were investigated according to the scale of 0 (no control) to 100 (complete control). The results of Table 8 were obtained by evaluating weed control value to the untreated control by conducting visual assessment.

fall panicum [4] = assay: Herbicidal activity test against upland field weeds (foliar treatment test); design: key to Foliar treatment herbicidal activity, Fall panicum: 0 (no control); 100 (complete control); settings: scale 0-100; for pest or weed control at 75 g/ha: 75 g ai/ha
Method in brief: (§2)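 Weeds were raised from seed or rootstocks in horticultural soil in a greenhouse (30±5° C., 14/10 h light/dark), then foliage was hand-sprayed with compound at 50 or 75 g a.i./ha in 50% acetone with 0.1% Tween-20. Control was scored visually 0–100 against untreated plants after 14 days, or 21 if needed.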

sorghum [5] = assay: Herbicidal activity test against upland field weeds (soil treatment test); design: key to Soil treatment herbicidal activity, Sorghum: 0 (no control); 100 (complete control); settings: scale 0 (no control) to 100 (complete control); for Soil treatment herbicidal activity, Sorghum: 50 g ai/ha; for plant injury at 75 g/ha: Sorghum, 75 g ai/ha
Method in brief: as §1

quack grass [6] = assay: as above; design: key to Soil treatment herbicidal activity, quack grass: 0 (no control); 100 (complete control); settings: scale 0 (no control) to 100 (complete control)
Method in brief: as §1

crabgrass [7] = assay: as above; design: key to Soil treatment herbicidal activity, Crabgrass: 0 (no control); 100 (complete control); settings: 50 g ai/ha, scale 0 (no control) to 100 (complete control)
Method in brief: as §1

barnyard grass [8] = assay: as above; design: key to Soil treatment herbicidal activity, barnyard grass: 0 (no control); 100 (complete control); settings: scale 0 (no control) to 100 (complete control)
Method in brief: as §1

bindweed [9] = assay: as above; design: key to Soil treatment herbicidal activity, Bindweed: 0 (no control); 100 (complete control); settings: scale 0 (no control) to 100 (complete control); for pest or weed control at 75 g/ha: 75 g ai/ha
Method in brief: as §1

velvetleaf [10] = assay: Herbicidal activity test against upland field weeds (foliar treatment test); design: key to Foliar treatment herbicidal activity, velvet leaf: 0 (no control); 100 (complete control); settings: for pest or weed control at 50 g/ha: 50 g ai/ha
Method in brief: as §2

cocklebur [11] = assay: as above; design: key to Foliar treatment herbicidal activity, Cocklebur: 0 (no control); 100 (complete control); settings: scale 0-100; for pest or weed control at 75 g/ha: 75 g ai/ha
Method in brief: as §2

quack grass [12] = assay: as above; design: key to Foliar treatment herbicidal activity, quack grass: 0 (no control); 100 (complete control); settings: scale 0-100
Method in brief: as §2

bindweed [13] = assay: as above; settings: scale 0-100; for pest or weed control at 50 g/ha: 50 g ai/ha; for pest or weed control at 75 g/ha: 75 g ai/ha
Method in brief: as §2

barnyard grass [14] = assay: as above; design: key to Foliar treatment herbicidal activity, barnyard grass: 0 (no control); 100 (complete control); settings: scale 0-100; for Foliar treatment herbicidal activity, barnyard grass: 50 g ai/ha; for pest or weed control at 75 g/ha: Echinochloa crus-galli, 75 g ai/ha
Method in brief: as §2

crabgrass [15] = assay: as above; design: key to Foliar treatment herbicidal activity, Crabgrass: 0 (no control); 100 (complete control); settings: scale 0-100; for pest or weed control at 75 g/ha: 75 g ai/ha
Method in brief: as §2

indian jointvetch [16] = assay: as above; design: key to Foliar treatment herbicidal activity, Indian jointvetch: 0 (no control); 100 (complete control); settings: scale 0-100; for pest or weed control at 75 g/ha: 75 g ai/ha
Method in brief: as §2

indian jointvetch [17] = assay: Herbicidal activity test against upland field weeds (soil treatment test); design: key to Soil treatment herbicidal activity, Indian jointvetch: 0 (no control); 100 (complete control); settings: scale 0 (no control) to 100 (complete control)
Method in brief: as §1

black nightshade [18] = assay: Herbicidal activity test against upland field weeds (foliar treatment test); design: key to Foliar treatment herbicidal activity, black nightshade: 0 (no control); 100 (complete control); settings: scale 0-100
Method in brief: as §2

velvetleaf [19] = assay: Herbicidal activity test against upland field weeds (soil treatment test); design: key to Soil treatment herbicidal activity, velvet leaf: 0 (no control); 100 (complete control); settings: scale 0 (no control) to 100 (complete control)
Method in brief: as §1

sorghum [20] = assay: Herbicidal activity test against upland field weeds (foliar treatment test); design: key to Foliar treatment herbicidal activity, Sorghum: 0 (no control); 100 (complete control); settings: scale 0-100; for plant injury at 75 g/ha: 75 g ai/ha
Method in brief: as §2

[21] = Abutilon theophrasti, scale 0-100, read-out: Foliar treatment herbicidal activity, velvet leaf

C=Cc1cc(C(=O)Nc2nnnn2C)c(OCc2nnnn2C)nc1C(F)(F)F [Compound No. 1-18, N-(1-methyl-1H-tetrazol-5-yl)-2-((1-methyl-1H-tetrazol-5-yl)methoxy)-6-(trifluoromethyl)-5-vinylnicotinamide]
pest or weed control at 50 g/ha (black nightshade [1]): 80%
Soil treatment herbicidal activity, Fall panicum (fall panicum [2]; 50 g ai/ha): 0
Soil treatment herbicidal activity, Cocklebur (cocklebur [3]; 50 g ai/ha): 0
Foliar treatment herbicidal activity, Fall panicum (fall panicum [4]; 50 g ai/ha): 0
Soil treatment herbicidal activity, Sorghum (sorghum [5]): 0
Soil treatment herbicidal activity, quack grass (quack grass [6]; 50 g ai/ha): 0
Soil treatment herbicidal activity, Crabgrass (crabgrass [7]): 0
Soil treatment herbicidal activity, barnyard grass (barnyard grass [8]; 50 g ai/ha): 0
pest or weed control at 50 g/ha (bindweed [9]; 50 g ai/ha): 20%
pest or weed control at 50 g/ha (velvetleaf [10]; [21]): 20%
Foliar treatment herbicidal activity, Cocklebur (cocklebur [11]; 50 g ai/ha): 0
Foliar treatment herbicidal activity, quack grass (quack grass [12]; 50 g ai/ha): 0
pest or weed control at 50 g/ha (bindweed [13]): 20%
Foliar treatment herbicidal activity, barnyard grass (barnyard grass [14]): 0
Foliar treatment herbicidal activity, Crabgrass (crabgrass [15]; 50 g ai/ha): 0
Foliar treatment herbicidal activity, Indian jointvetch (indian jointvetch [16]; 50 g ai/ha): 0
Soil treatment herbicidal activity, Indian jointvetch (indian jointvetch [17]; 50 g ai/ha): 0
pest or weed control at 50 g/ha (black nightshade [18]; Solanum nigrum, 50 g ai/ha): 80%
pest or weed control at 50 g/ha (velvetleaf [19]; Abutilon theophrasti, 50 g ai/ha, read-out: Soil treatment herbicidal activity, velvet leaf): 20%
Foliar treatment herbicidal activity, Sorghum (sorghum [20]; 50 g ai/ha): 0

Cn1nnc(CSCc2nc(C(F)F)ccc2C(=O)N(C(=O)c2ccccc2)c2nnnn2C)n1 [Compound No. 2-112, N-benzoyl-6-(difluoromethyl)-N-(1-methyl-1H-tetrazol-5-yl)-2-((((2-methyl-2H-tetrazol-5-yl)methyl)thio)methyl)nicotinamide]
pest or weed control at 50 g/ha (black nightshade [1]): 90%
Soil treatment herbicidal activity, Fall panicum (fall panicum [2]; 50 g ai/ha): 0
Soil treatment herbicidal activity, Cocklebur (cocklebur [3]; 50 g ai/ha): 0
pest or weed control at 50 g/ha (fall panicum [4]; Panicum dichotomiflorum, 50 g ai/ha): 70%
Soil treatment herbicidal activity, Sorghum (sorghum [5]): 0
Soil treatment herbicidal activity, quack grass (quack grass [6]; 50 g ai/ha): 0
Soil treatment herbicidal activity, Crabgrass (crabgrass [7]): 0
Soil treatment herbicidal activity, barnyard grass (barnyard grass [8]; 50 g ai/ha): 0
Soil treatment herbicidal activity, Bindweed (bindweed [9]; 50 g ai/ha): 0
pest or weed control at 50 g/ha (velvetleaf [10]; [21]): 90%
pest or weed control at 50 g/ha (cocklebur [11]; Xanthium strumarium, 50 g ai/ha): 98%
Foliar treatment herbicidal activity, quack grass (quack grass [12]; 50 g ai/ha): 0
pest or weed control at 50 g/ha (bindweed [13]): 98%
Foliar treatment herbicidal activity, barnyard grass (barnyard grass [14]): 100
pest or weed control at 50 g/ha (crabgrass [15]; Digitaria sanguinalis, 50 g ai/ha): 90%
pest or weed control at 50 g/ha (indian jointvetch [16]; 50 g ai/ha): 95%
Soil treatment herbicidal activity, Indian jointvetch (indian jointvetch [17]; 50 g ai/ha): 100
Foliar treatment herbicidal activity, black nightshade (black nightshade [18]; 50 g ai/ha): 100
Soil treatment herbicidal activity, velvet leaf (velvetleaf [19]; 50 g ai/ha): 100
plant injury at 50 g/ha (sorghum [20]; Sorghum, 50 g ai/ha): 50%

CCN(Cc1nnn(C)n1)c1nc(C(F)(F)F)ccc1C(=O)Nc1nnnn1C [Compound No. 2-27, 2-(ethyl((2-methyl-2H-tetrazol-5-yl)methyl)amino)-N-(1-methyl-1H-tetrazol-5-yl)-6-(trifluoromethyl)nicotinamide]
Soil treatment herbicidal activity, black nightshade (black nightshade [1]): 100
Soil treatment herbicidal activity, Fall panicum (fall panicum [2]; 75 g ai/ha): 100
Soil treatment herbicidal activity, Cocklebur (cocklebur [3]; 75 g ai/ha): 100
pest or weed control at 75 g/ha (fall panicum [4]; Panicum dichotomiflorum): 70%
plant injury at 75 g/ha (sorghum [5]): 50%
Soil treatment herbicidal activity, quack grass (quack grass [6]; 75 g ai/ha): 0
Soil treatment herbicidal activity, barnyard grass (barnyard grass [8]; 75 g ai/ha): 100
pest or weed control at 75 g/ha (bindweed [9]): 98%
Foliar treatment herbicidal activity, velvet leaf (velvetleaf [10]; 75 g ai/ha, scale 0-100): 100
pest or weed control at 75 g/ha (cocklebur [11]; Xanthium strumarium): 98%
Foliar treatment herbicidal activity, quack grass (quack grass [12]; 75 g ai/ha): 0
pest or weed control at 75 g/ha (bindweed [13]): 40%
pest or weed control at 75 g/ha (barnyard grass [14]): 80%
pest or weed control at 75 g/ha (crabgrass [15]; Digitaria sanguinalis): 20%
pest or weed control at 75 g/ha (indian jointvetch [16]): 70%
Soil treatment herbicidal activity, Indian jointvetch (indian jointvetch [17]; 75 g ai/ha): 100
Foliar treatment herbicidal activity, black nightshade (black nightshade [18]; 75 g ai/ha): 100
Soil treatment herbicidal activity, velvet leaf (velvetleaf [19]; 75 g ai/ha): 100
plant injury at 75 g/ha (sorghum [20]; Sorghum): 40%

CN(Cc1ncn(C)n1)c1nc(C(F)(F)F)ccc1C(=O)Nc1nnnn1C [Compound No. 2-35, 2-(methyl((1-methyl-1H-1,2,4-triazol-3-yl)methyl)amino)-N-(1-methyl-1H-tetrazol-5-yl)-6-(trifluoromethyl)nicotinamide]
Soil treatment herbicidal activity, black nightshade (black nightshade [1]): 100
Soil treatment herbicidal activity, Fall panicum (fall panicum [2]; 75 g ai/ha): 100
pest or weed control at 75 g/ha (cocklebur [3]; Xanthium strumarium, 75 g ai/ha): 95%
pest or weed control at 75 g/ha (fall panicum [4]; Panicum dichotomiflorum): 80%
plant injury at 75 g/ha (sorghum [5]): 90%
Soil treatment herbicidal activity, quack grass (quack grass [6]; 75 g ai/ha): 0
Soil treatment herbicidal activity, barnyard grass (barnyard grass [8]; 75 g ai/ha): 100
pest or weed control at 75 g/ha (bindweed [9]): 70%
pest or weed control at 75 g/ha (velvetleaf [10]; Abutilon theophrasti, 75 g ai/ha, scale 0-100, read-out: Foliar treatment herbicidal activity, velvet leaf): 90%
pest or weed control at 75 g/ha (cocklebur [11]; Xanthium strumarium): 90%
Foliar treatment herbicidal activity, quack grass (quack grass [12]; 75 g ai/ha): 0
pest or weed control at 75 g/ha (bindweed [13]): 70%
pest or weed control at 75 g/ha (barnyard grass [14]): 80%
pest or weed control at 75 g/ha (crabgrass [15]; Digitaria sanguinalis): 70%
pest or weed control at 75 g/ha (indian jointvetch [16]): 80%
Soil treatment herbicidal activity, Indian jointvetch (indian jointvetch [17]; 75 g ai/ha): 100
Foliar treatment herbicidal activity, black nightshade (black nightshade [18]; 75 g ai/ha): 100
Soil treatment herbicidal activity, velvet leaf (velvetleaf [19]; 75 g ai/ha): 100
plant injury at 75 g/ha (sorghum [20]; Sorghum): 70%
